The text below walks through data of the OPERA property sets (Mansouri et al. 2018).

Structures are written as SMILES.

Details in the first data set: not given
As a reminder, the melting point is the temperature of the solid-liquid transition. For the compound `O=C(O)c1cccc(F)c1F`, the melting point was 164 °C.
With `c1ccc2c(c1)cc1ccc3cc4ccccc4c4ccc2c1c34`, the log10 Koc (L/kg) was 5.71, the log10 biodegradation half-life (days) is 2.47 and the melting point came to 282 °C.
As usually defined, the boiling point is the temperature of boiling at a given pressure. `C=CC(C)CCC` (configuration not stated) yielded a boiling point of 83.9 °C and a log10 vapour pressure (mmHg) of 1.92.
`C[C@]12CC[C@H](O)C[C@H]1CC[C@@H]1[C@@H]2[C@H](O)C[C@]2(C)[C@@H](C3=CC(=O)OC3)CC[C@]12O` yielded a melting point of 280 °C.
The compound `OCCCCl` returned a boiling point of 165 °C.
Turning to `Cc1ccccc1OC(=O)c1ccccc1`, the boiling point was 309 °C.
In turn, `CCOC(=O)CCCCl` gave a boiling point of 184 °C.
On the same count and under the same terms, the same measure for `CCOC(=O)CCC(C)C`: 163 °C.
For `CC1(c2ccccc2)C(=O)NC(=O)NC1=O`, the melting point was found to be 220 °C.
For the compound `FCCCCBr`, the boiling point was 135 °C.
`Nc1ccc(Cl)cc1` returned a boiling point of 232 °C, a log10 Koc (L/kg) of 1.96, a log10 vapour pressure (mmHg) of -1.57 and a melting point of 72.5 °C. In addition, the ready biodegradability result was “not readily biodegradable”.
`CC(=O)OCc1ccco1` registered a boiling point of 179 °C.
`CCCCC(CC)CCl` (configuration not stated) gave a boiling point of 172 °C and a log10 vapour pressure (mmHg) of 0.0792.
On to `O=C(O)CSc1ncccn1`, for which the ready biodegradability entry is reported as “readily biodegradable”.
Compound `O=C1OC(c2ccccc2)(c2ccccc2)c2ccccc21` registered a melting point of 120 °C.
Regarding `CCc1cccs1`, the boiling point stood at 134 °C and the log10 vapour pressure (mmHg) came out at 1.05.
Regarding `Clc1ccc2cc(Cl)ccc2c1`, the boiling point amounted to 285 °C and the melting point is 140 °C.
For `CC(C)C(N)=O` the same measures were 218 °C and 128 °C.
For the compound `CC(C)CCOC(=O)CC(C)C`, the boiling point was found to be 190 °C and the log10 vapour pressure (mmHg) is -0.0526.
In the case of `CCOP(=O)(OCC)ON1C(=O)c2cccc3cccc(c23)C1=O`, the melting point came to 177 °C.
Regarding `S=C(S)N1CCNCC1`, the melting point amounted to 228 °C.
Turning to `O=C1c2ccccc2-c2ccc3c4ccc5c6c(ccc(c7ccc1c2c73)c64)C(=O)c1ccccc1-5`, the melting point is 492 °C.
`CCC(Br)C(Br)Br` (configuration not stated) came in with a boiling point of 216 °C.
`Cc1cccnc1C`: the boiling point is 161 °C, the log10 Henry constant (atm·m³/mol) is -5.14 and the log10 vapour pressure (mmHg) came to 0.43.
`CCc1ccc[nH]1` displayed a boiling point of 164 °C.
Regarding `O=[N+]([O-])c1ccc2[nH]cnc2c1`, the melting point worked out at 208 °C and the ready biodegradability entry is recorded as “not readily biodegradable”.
`CCCC(CCC)C(N)=O` gave a melting point of 125 °C.
`CCCCCCCCCCCCCCCC[n+]1ccccc1.[Br-]`: the melting point is 63 °C.
Consider `CNP(=O)(NC)Oc1ccccc1`, for which the log10 Koc (L/kg) was determined as 1.51 and the melting point is 102 °C.
Compound `Cc1ccc2c(c1)CCCC2` registered a boiling point of 229 °C and a melting point of -40 °C.
In the case of `O=C(O)c1cccc(O)c1`, the melting point was 202 °C and the ready biodegradability entry is recorded as “readily biodegradable”.
Consider `CC#CC(=O)O`, for which the boiling point was determined as 203 °C and the melting point stood at 78 °C.
The compound `CCCCCCCCCCCS` yielded a boiling point of 257 °C and a melting point of -3 °C.
As to `CC(C)CO`, the log10 Henry constant (atm·m³/mol) was -5.01, the log10 Koa was determined as 3.93, the log10 vapour pressure (mmHg) is 1.02 and the ready biodegradability entry is “readily biodegradable”.
For `C=CCC1CCCC1`, the boiling point came to 125 °C and the melting point is -111 °C.
Regarding `CSCCC=O`, the boiling point turned out to be 166 °C.
Take `Clc1c(Cl)c(Cl)c2c(Cl)c(Cl)c(Cl)c(Cl)c2c1Cl`: the log10 Koa is 11.1, the log10 Koc (L/kg) was 5.89, the log10 vapour pressure (mmHg) was -7.96 and the melting point came to 198 °C.
Consider `O=C1c2c(O)ccc(Nc3ccccc3)c2C(=O)c2c([N+](=O)[O-])ccc(O)c21`, for which the ready biodegradability result is “not readily biodegradable”.
For `CCC1(CC)C(=O)C=CNC1=O`, the melting point is 90.7 °C.
Take `CCC(=O)O[C@H]([C@H](C)[C@H]1O[C@@]2(CC[C@@](C)([C@H]3CC[C@@](C)(C4O[C@@H]([C@H]5O[C@@](O)(CO)[C@H](C)C[C@@H]5C)C[C@@H]4C)O3)O2)C[C@H](O)[C@H]1C)[C@@H](C)C(=O)O` (some centres not stated): the melting point turned out to be 152 °C.
Turning to `CCCCCCCCCCCCCCCC=O`, the melting point was found to be 35 °C.
`CCc1ccc(OC)cc1` yielded a boiling point of 198 °C.
`Cc1ccc(-c2cc(C(F)(F)F)nn2-c2ccc(S(N)(=O)=O)cc2)cc1` gave a melting point of 158 °C.
As for `O=C(O)/C=C/C=C/C(=O)O`, the melting point turned out to be 301 °C.
In turn, `Cc1ccc2nc(C)cc(C)c2c1` displayed a boiling point of 280 °C and a melting point of 68 °C.
In turn, `Cc1cc(O)ccc1O` yielded a boiling point of 272 °C and a melting point of 128 °C.
`C=C(Br)CC1(C(C)C)C(=O)NC(=O)NC1=O` registered a melting point of 181 °C.
`O=c1cn[nH]c(=O)[nH]1` came in with a melting point of 274 °C.
In turn, `FC1C(F)(F)C(F)(F)C(F)(F)C(F)(F)C1(F)F` yielded a boiling point of 62 °C.
Compound `Cc1ccc(C(=O)c2ccc(C)cc2)cc1` had a boiling point of 334 °C and a melting point of 96.5 °C.
Compound `CC(C)C(C)c1ccccc1` (configuration not stated) registered a boiling point of 187 °C.

The same data set, now with this note: fish.
Compound `Brc1ccc(Oc2ccc(Br)c(Br)c2Br)c(Br)c1` gave a log10 biotransformation half-life (days) of 1.34.
As to `Clc1ccc(Cl)c(Cl)c1Cl`, the log10 BCF stood at 3.38 and the log10 biotransformation half-life (days) was 0.69.
In turn, `CS(C)=O` had a log10 BCF of 0.6.
On to `N#Cc1nn(-c2c(Cl)cc(C(F)(F)F)cc2Cl)c(N)c1S(=O)(=O)C(F)(F)F`, for which the log10 biotransformation half-life (days) was 1.05.
Compound `Nc1ccc(Cl)cc1` came in with a log10 BCF of 0.84 and a log10 biotransformation half-life (days) of -0.61.
The compound `O=[N+]([O-])c1ccc2[nH]cnc2c1` displayed a log10 BCF of 0.4 and a log10 biotransformation half-life (days) of -1.15.
`Clc1c(Cl)c(Cl)c2c(Cl)c(Cl)c(Cl)c(Cl)c2c1Cl` registered a log10 BCF of 2.58 and a log10 biotransformation half-life (days) of 1.62.
